In ChEMBL document CHEMBL3763138, “Synthesis and bioactivity of novel triazole incorporated benzothiazinone derivatives as antitubercular and antioxidant agent” (Bioorg Med Chem Lett, 2016):
In brackets after ≈: the same amount, converted by molar mass.

Experiments:
Conditions in all cases: ATCC 35743, 10 min
[1] = tested on: Mycobacterium tuberculosis variant bovis BCG; experiment: Antitubercular activity against Mycobacterium bovis BCG ATCC 35743 at 3 ug/ml after 10 mins by NR assay; assay type: functional
[2] = tested on: Mycobacterium tuberculosis variant bovis BCG; experiment: Antitubercular activity against Mycobacterium bovis BCG ATCC 35743 at 30 ug/ml after 10 mins by NR assay; assay type: functional
[3] = tested on: Mycobacterium tuberculosis variant bovis BCG; experiment: Antitubercular activity against Mycobacterium bovis BCG ATCC 35743 at 10 ug/ml after 10 mins by NR assay; assay type: functional
[4] = tested on: Mycobacterium tuberculosis variant bovis BCG; experiment: Antitubercular activity against Mycobacterium bovis BCG ATCC 35743 after 10 mins by NR assay; assay type: functional, organism-based

O=C1CSc2ccccc2N1Cc1cn(-c2cccc([N+](=O)[O-])c2)nn1
inhibition at 3 µg/mL [1]: 39.3%
inhibition at 30 µg/mL [2]: 26.6%
inhibition at 10 µg/mL [3]: 31.3%
IC50 [4]: > 30 µg/mL
MIC [4]: > 30 µg/mL

O=C1CSc2ccccc2N1Cc1cn(Cc2cccc([N+](=O)[O-])c2)nn1
inhibition at 3 µg/mL [1]: 36.1%
inhibition at 30 µg/mL [2]: 88.5%
inhibition at 10 µg/mL [3]: 62.2%
IC50 [4]: 6.89 µg/mL (≈ 18.1 µM)
MIC [4]: > 30 µg/mL

O=C1CSc2ccccc2N1Cc1cn(Cc2ccc([N+](=O)[O-])cc2)nn1
inhibition at 3 µg/mL [1]: 28.3%
inhibition at 30 µg/mL [2]: 91.1%
inhibition at 10 µg/mL [3]: 59.2%
IC50 [4]: 7.89 µg/mL (≈ 20.7 µM)
MIC [4]: 29.4 µg/mL (≈ 77 µM)

O=C1CSc2ccccc2N1Cc1cn(Cc2ccc(F)cc2)nn1
inhibition at 3 µg/mL [1]: 40.6%
inhibition at 30 µg/mL [2]: 95.3%
inhibition at 10 µg/mL [3]: 52.9%
IC50 [4]: 8.25 µg/mL (≈ 23.3 µM)
MIC [4]: 27.5 µg/mL (≈ 77.6 µM)

O=C1CSc2ccccc2N1Cc1cn(Cc2ccc(Cl)cc2)nn1
inhibition at 3 µg/mL [1]: 66.1%
inhibition at 30 µg/mL [2]: 58.1%
inhibition at 10 µg/mL [3]: 55.2%
IC50 [4]: 8.55 µg/mL (≈ 23.1 µM)
MIC [4]: > 30 µg/mL

O=C1CSc2ccccc2N1Cc1cn(-c2ccc([N+](=O)[O-])cc2)nn1
inhibition at 3 µg/mL [1]: 15.9%
inhibition at 30 µg/mL [2]: 33.1%
inhibition at 10 µg/mL [3]: 30.7%
IC50 [4]: > 30 µg/mL
MIC [4]: > 30 µg/mL

O=C1CSc2ccccc2N1Cc1cn(Cc2ccc(Br)cc2)nn1
inhibition at 3 µg/mL [1]: 58.8%
inhibition at 30 µg/mL [2]: 43.9%
inhibition at 10 µg/mL [3]: 35.3%
IC50 [4]: > 30 µg/mL
MIC [4]: > 30 µg/mL

O=C1CSc2ccccc2N1Cc1cn(Cc2ccccc2)nn1
inhibition at 3 µg/mL [1]: 1.1%
inhibition at 30 µg/mL [2]: 74.3%
inhibition at 10 µg/mL [3]: 26.8%
IC50 [4]: 19.8 µg/mL (≈ 58.7 µM)
MIC [4]: > 30 µg/mL

O=C1CSc2ccccc2N1Cc1cn(Cc2cccc(Cl)c2)nn1
inhibition at 3 µg/mL [1]: 3.3%
inhibition at 30 µg/mL [2]: 95.5%
inhibition at 10 µg/mL [3]: 16.4%
IC50 [4]: 18.6 µg/mL (≈ 50.1 µM)
MIC [4]: 28.4 µg/mL (≈ 76.7 µM)

O=C1CSc2ccccc2N1Cc1cn(Cc2ccccc2Cl)nn1
inhibition at 3 µg/mL [1]: 32%
inhibition at 30 µg/mL [2]: 58%
inhibition at 10 µg/mL [3]: 80.2%
IC50 [4]: > 30 µg/mL
MIC [4]: > 30 µg/mL

NNC(=O)c1ccncc1 [ISONIAZID]
IC50 [4]: 0.0023 µg/mL (≈ 0.0168 µM)
MIC [4]: 0.045 µg/mL (≈ 0.328 µM)

CO[C@H]1/C=C/O[C@@]2(C)Oc3c(C)c(O)c4c(O)c(c(/C=N/N5CCN(C)CC5)c(O)c4c3C2=O)NC(=O)/C(C)=C\C=C\[C@H](C)[C@H](O)[C@@H](C)[C@@H](O)[C@@H](C)[C@H](OC(C)=O)[C@@H]1C [RIFAMPIN]
IC50 [4]: 0.0016 µg/mL (≈ 0.00194 µM)
MIC [4]: 0.041 µg/mL (≈ 0.0498 µM)
